Reference: ChEMBL document CHEMBL1255252, “E240V substitution increases catalytic efficiency toward ceftazidime in a new natural TEM-type extended-spectrum beta-lactamase, TEM-149, from Enterobacter aerogenes and Serratia marcescens clinical isolates” (2008)
In brackets after ≈: the same amount, converted by molar mass.

Key:
Serratia marcescens = assay: Antimicrobial activity against Serratia marcescens isolate CT-118 by broth macrodilution method; format: functional
Escherichia coli [1] = assay: Antimicrobial activity against Escherichia coli HB101 expressing recombinant plasmid encoded TEM-149 by broth macrodilution method; format: functional
Escherichia coli [2] = assay: Antimicrobial activity against Escherichia coli HB101 harboring empty vector pBK-SK by broth macrodilution method; format: functional
Escherichia coli [3] = assay: Antimicrobial activity against Escherichia coli HB101 expressing plasmid encoded TEM-149 T182M mutant by broth macrodilution method; format: functional
[4] = Activity of Beta-lactamase TEM-149 expressed in Escherichia coli HB101
[5] = Ratio of Kcat to Km for Beta-lactamase TEM-149 expressed in Escherichia coli HB101
[6] = Activity of Beta-lactamase TEM-149 T182M mutant expressed in Escherichia coli HB101
[7] = Ratio of Kcat to Km for Beta-lactamase TEM-149 T182M mutant expressed in Escherichia coli HB101
Klebsiella aerogenes = assay: Antimicrobial activity against Enterobacter aerogenes isolate SS-13 by broth macrodilution method; format: functional
[8] = Activity of Beta-lactamase TEM-10
[9] = Ratio of Kcat to Km for Beta-lactamase TEM-10

Structure (SMILES)	MIC (Serratia marcescens)	MIC (Escherichia coli [1])	MIC (Escherichia coli [2])	MIC (Escherichia coli [3])	Km [4]	kcat [4]	kcat/Km [5]	Km [6]	kcat [6]	kcat/Km [7]	MIC (Klebsiella aerogenes)	Km [8]	kcat [8]	kcat/Km [9]
CCN1CCN(C(=O)N[C@@H](C(=O)N[C@@H]2C(=O)N3[C@@H]2SC(C)(C)[C@@H]3C(=O)O)c2ccccc2)C(=O)C1=O [PIPERACILLIN]	> 256 µg/mL	> 256 µg/mL	32 µg/mL (≈ 61.8 µM)	1 µg/mL (≈ 1.93 µM)	1.4 µM	2.7 s⁻¹	1.92e+06 M⁻¹ s⁻¹	3.4 µM	5 s⁻¹	1.47e+06 M⁻¹ s⁻¹	> 256 µg/mL			
CC1(C)S[C@@H]2[C@H](NC(=O)[C@H](N)c3ccccc3)C(=O)N2[C@H]1C(=O)O					5 µM	5.4 s⁻¹	1.08e+06 M⁻¹ s⁻¹	19 µM	2.4 s⁻¹	127000 M⁻¹ s⁻¹		4 µM	12.5 s⁻¹	3.1e+06 M⁻¹ s⁻¹
C[C@H]1[C@H](NC(=O)/C(=N\OC(C)(C)C(=O)O)c2csc(N)n2)C(=O)N1S(=O)(=O)O [AZTREONAM]	> 64 µg/mL	> 64 µg/mL	64 µg/mL (≈ 147 µM)	< 0.125 µg/mL	51 µM	4.7 s⁻¹	92000 M⁻¹ s⁻¹	27 µM	3.6 s⁻¹	130000 M⁻¹ s⁻¹	> 64 µg/mL	28 µM	2 s⁻¹	70000 M⁻¹ s⁻¹
CO/N=C(\C(=O)N[C@@H]1C(=O)N2C(C(=O)O)=C(COC(C)=O)CS[C@H]12)c1csc(N)n1 [CEFOTAXIME]	> 128 µg/mL	1 µg/mL	4 µg/mL (≈ 8.78 µM)	< 0.125 µg/mL	43 µM	0.07 s⁻¹	1600 M⁻¹ s⁻¹	32 µM	0.41 s⁻¹	13000 M⁻¹ s⁻¹	> 128 µg/mL	30 µM	0.3 s⁻¹	10000 M⁻¹ s⁻¹
Cc1nnc(SCC2=C(C(=O)O)N3C(=O)[C@@H](NC(=O)Cn4cnnn4)[C@H]3SC2)s1 [CEFAZOLIN]	> 64 µg/mL	32 µg/mL	4 µg/mL (≈ 8.8 µM)	1 µg/mL (≈ 2.2 µM)	68 µM	2.2 s⁻¹	32000 M⁻¹ s⁻¹	35 µM	0.56 s⁻¹	16000 M⁻¹ s⁻¹	> 64 µg/mL	417 µM	12.5 s⁻¹	30000 M⁻¹ s⁻¹
CC1(C)S[C@@H]2[C@H](NC(=O)Cc3ccccc3)C(=O)N2[C@H]1C(=O)O					0.6 µM	3.5 s⁻¹	5.8e+06 M⁻¹ s⁻¹	0.7 µM	10.5 s⁻¹	1.5e+07 M⁻¹ s⁻¹		2 µM	51 s⁻¹	2.55e+07 M⁻¹ s⁻¹
CC1(C)S[C@@H]2[C@H](NC(=O)[C@H](N)c3ccc(O)cc3)C(=O)N2[C@H]1C(=O)O [AMOXICILLIN]	> 64 µg/mL	> 64 µg/mL		8 µg/mL (≈ 21.9 µM)							> 64 µg/mL			
CC(C)(O/N=C(\C(=O)N[C@@H]1C(=O)N2C(C(=O)[O-])=C(C[n+]3ccccc3)CS[C@H]12)c1csc(N)n1)C(=O)O [CEFTAZIDIME]	> 64 µg/mL	> 64 µg/mL	> 64 µg/mL	0.5 µg/mL (≈ 0.915 µM)	19 µM	8.3 s⁻¹	440000 M⁻¹ s⁻¹	26 µM	8.3 s⁻¹	320000 M⁻¹ s⁻¹	> 64 µg/mL	607 µM	17 s⁻¹	28000 M⁻¹ s⁻¹
CO/N=C(\C(=O)N[C@@H]1C(=O)N2C(C(=O)[O-])=C(C[N+]3(C)CCCC3)CS[C@H]12)c1csc(N)n1	> 64 µg/mL	8 µg/mL	1 µg/mL (≈ 2.08 µM)	< 0.125 µg/mL	16 µM	2.4 s⁻¹	150000 M⁻¹ s⁻¹	30 µM	0.43 s⁻¹	14000 M⁻¹ s⁻¹	> 64 µg/mL			
